Broadly, the IC50 is the point on the concentration scale where inhibition reaches its midpoint.

Experimental findings from patent US20120122840A1, “COMPOUNDS AND THERAPEUTIC USES THEREOF” (Myrexis, Inc., priority 2009, published 2012) are described below.

Common to all, as to assay: CellTiter Glo cell viability, 7 days
What all share (assay type): cell-based
For orientation: Cellular ATP, detected with luciferase, serves as a proxy for viable cell number.

One assay relates to MDA-MB-231. The note with it: Homo sapiens, 168 h, breast, read-out: 7 day IC50. The protocol: (§1) The compounds of the present invention were tested against a panel of cancer cells to determine the effect on cell viability. Viability was determined by measuring cellular ATP levels using CellTiter Glo reagent (Promega, Madison, Wis.).
(§2) MATERIALS: • A. Cancer cell lines obtained from ATCC or DSMZ • B. RPMI supplemented with 10% FBS/L-glutamine/NEAA/HEPES/Na-Pyruvate • C. DMEM supplemented with 10% FBS and L-glutamine. • B. Compounds, typically 50 mM stocks diluted in DMSO; • C. Clear, flat, TC-surface bottomed 96-well microplates (Corning #3595) • D. CellTiter-Glo® Luminescent Cell Viability Assay (Promega #G7573)
(§3) METHODS: • 1. Cells were plated at densities of 2000-5000 cells per well in 100 μl volume on a 96-well plate, and were incubated overnight. • 2. Test compound(s) were serially diluted to the desired 250× concentration. • 3. For each concentration of compound to be tested, 0.4 μl of 250× compound was added in triplicate to the cell plates. Plates were then incubated at 37° C. for 7 days. • 4. 100 μL of prepared CellTiter Glo reagent was added to treated cells, and plates were gently mixed for 2 minutes, and equilibrated for 10 minutes at room temperature. • 5. Luminescence was measured and the viability of treated cells relative to DMSO control was calculated.
(§4) Cancer cell lines were treated with TTK inhibitor for 7 days and cell viability was measured using the CellTiter Glo assay (Promega, Madison, Wis.).

The test system of a further assay is SW-480. The note with it: Homo sapiens, SW480, 168 h, colon, read-out: 7 day IC50. The method, then:
as §1, §2, §3, §4

The test system of the next assay is SK-BR-3. As to conditions: Homo sapiens, 168 h, breast, read-out: 7 day IC50. The protocol: as §1, §2, §3, §4
For the next assay, the system named is DU-145. As to conditions: Homo sapiens, 168 h, prostate, read-out: 7 day IC50. The method, then:
as §1, §2, §3, §4

The next assay has as its system OVCAR-5. As to conditions: Homo sapiens, 168 h, ovarian, read-out: 7 day IC50. The method, then: as §1, §2, §3, §4
The subject of a further assay is U-87MG. The note with it: Homo sapiens, 168 h, CNS, read-out: 7 day IC50. The method, then:
as §1, §2, §3, §4

For a further assay, the system named is Colo-205. The note with it: Homo sapiens, 168 h, colon, read-out: 7 day IC50. The protocol: as §1, §2, §3, §4
For another assay, the system named is 786-0. As to conditions: Homo sapiens, 168 h, kidney, read-out: 7 day IC50. The protocol: as §1, §2, §3, §4
The next assay concerns HCC827. The note with it: Homo sapiens, 168 h, lung, read-out: 7 day IC50. The method, then:
as §1, §2, §3, §4

The next assay relates to OVCAR-3. As to conditions: Homo sapiens, 168 h, ovarian, read-out: 7 day IC50. The protocol: as §1, §2, §3, §4
For another assay, the system named is HCT-15. The note with it: Homo sapiens, 168 h, colon, read-out: 7 day IC50. The method, then:
as §1, §2, §3, §4

In the next assay the test system is BT-474. The note with it: Homo sapiens, 168 h, breast, read-out: 7 day IC50. The protocol: as §1, §2, §3, §4
The subject of another assay is OPM-2. As to conditions: Homo sapiens, 168 h, blood, read-out: 7 day IC50. The protocol:
as §1, §2, §3, §4

In the next assay the test system is BxPC-3. As to conditions: Homo sapiens, 168 h, pancreas, read-out: 7 day IC50. The method, then: as §1, §2, §3, §4
For the next assay, the system named is MDA-MB-436. The note with it: Homo sapiens, 168 h, breast, read-out: 7 day IC50. The protocol:
as §1, §2, §3, §4

Another assay deals with ZR-75-1. The note with it: Homo sapiens, 168 h, breast, read-out: 7 day IC50. The protocol: as §1, §2, §3, §4
The next assay relates to PC-3. As to conditions: Homo sapiens, 168 h, prostate, read-out: 7 day IC50. The method, then: as §1, §2, §3, §4
For the next assay, the system named is KARPAS-299. The note with it: Homo sapiens, 168 h, blood, read-out: 7 day IC50. The method, then: as §1, §2, §3, §4
In a further assay the test system is IGR-OV1. The note with it: Homo sapiens, IGROV-1, 168 h, ovarian, read-out: 7 day IC50. The protocol: as §1, §2, §3, §4
Another assay concerns DU4475. The note with it: Homo sapiens, DU-4475, 168 h, breast, read-out: 7 day IC50. The protocol: as §1, §2, §3, §4
The test system of another assay is PANC1. As to conditions: Homo sapiens, PANC-1, 168 h, pancreas, read-out: 7 day IC50. The method, then:
as §1, §2, §3, §4

The test system of a further assay is NCI-N87. As to conditions: Homo sapiens, 168 h, gastric, read-out: 7 day IC50. The method, then:
as §1, §2, §3, §4

The next assay deals with DMS-114. The note with it: Homo sapiens, 168 h, lung, read-out: 7 day IC50. The protocol:
as §1, §2, §3, §4

In the next assay the test system is MCF-7. The note with it: Homo sapiens, MCF7, 168 h, breast, read-out: 7 day IC50. The protocol:
as §1, §2, §3, §4

On to `Cc1cc(N2CCOCC2)ccc1Nc1nc(NC2CCCCC2)c2nc[nH]c2n1` [N6-cyclohexyl-N2-(2-methyl-4-morpholino-phenyl)-9H-purine-2,6-diamine], for which the IC50 in the assay on MDA-MB-231 was 28000 nM; with SW-480, 140 nM; with SK-BR-3, 56 nM; in the assay with DU-145, 370 nM; with OVCAR-5, 150 nM; in the assay with U-87MG, 670 nM. For the same molecule, the IC50 with Colo-205 is 90 nM; in the assay on 786-0, 1200 nM; with HCC827, 94 nM; with OVCAR-3 it was 150 nM; with HCT-15 it was 280 nM; in the assay with BT-474, more than 30000 nM. Also, the IC50 with OPM-2 amounted to 99 nM; in the assay on BxPC-3, 120 nM; in the assay on MDA-MB-436 it was 8700 nM; with ZR-75-1, 56 nM; in the assay with PC-3 it was 200 nM; in the assay with KARPAS-299, 96 nM. In addition, the IC50 was determined as 580 nM in the assay with IGR-OV1; 72 nM in the assay on DU4475; 3700 nM in the assay on PANC1; 2100 nM with NCI-N87; 180 nM in the assay on DMS-114; 61 nM in the assay with MCF-7.
